In the NIST ThermoML archive (doi:10.1021/acs.jced.7b00002):
± gives the expanded uncertainty stated by the source.

Assay: xn = mol fraction of the nth substance listed
Details: 97.6 kPa, Liquid; for viscosity: Capillary tube (Ostwald / Ubbelohde) method; for mass density: Vibrating tube method

CCCCCCCC[n+]1ccn(C)c1.[Cl-] [1-methyl-3-octylimidazolium chloride] + CN(C)C=O
Details	mass density [kg/m3]	viscosity [mPa·s]
303.15 K, x1 = 0.119	965.57 ± 1.9	2.56
303.15 K, x1 = 0.241	979.1 ± 2	8.9
303.15 K, x1 = 0.321	985.99 ± 2	18.99
303.15 K, x1 = 0.424	992 ± 2	49.08
303.15 K, x1 = 0.557	996.35 ± 2	160.48
303.15 K, x1 = 0.739	1002.01 ± 2.1	766.79
303.15 K, x1 = 0.858	1004.31 ± 2.1	1892.8
303.15 K, x1 = 1	1006.2 ± 2.2	7339.7
308.15 K, x1 = 0.119	961.27 ± 1.9	2.32
308.15 K, x1 = 0.241	975.4 ± 2	7.69
308.15 K, x1 = 0.321	982.47 ± 2	15.91
308.15 K, x1 = 0.424	988.63 ± 2	39.48
308.15 K, x1 = 0.557	993.19 ± 2	122.67
308.15 K, x1 = 0.739	998.95 ± 2.1	536.62
308.15 K, x1 = 0.858	1001.36 ± 2.1	1258
308.15 K, x1 = 1	1003.33 ± 2.1	4272.9
313.15 K, x1 = 0.119	957.31 ± 1.9	2.13
313.15 K, x1 = 0.241	971.7 ± 2	6.75
313.15 K, x1 = 0.321	979.05 ± 2	13.51
313.15 K, x1 = 0.424	985.26 ± 2	32.2
313.15 K, x1 = 0.557	989.93 ± 2	95.06
313.15 K, x1 = 0.739	995.95 ± 2.1	381.17
313.15 K, x1 = 0.858	998.42 ± 2.1	856.69
313.15 K, x1 = 1	1000.48 ± 2.1	2766.9
318.15 K, x1 = 0.119	953.45 ± 1.9	1.95
318.15 K, x1 = 0.241	967.99 ± 2	5.96
318.15 K, x1 = 0.321	975.72 ± 2	11.56
318.15 K, x1 = 0.424	981.9 ± 2	26.5
318.15 K, x1 = 0.557	986.82 ± 2	74.18
318.15 K, x1 = 0.739	992.97 ± 2.1	277.21
318.15 K, x1 = 0.858	995.47 ± 2.1	596.05
318.15 K, x1 = 1	997.64 ± 2.1	1788.6
323.15 K, x1 = 0.119	949.36 ± 1.9	1.81
323.15 K, x1 = 0.241	964.31 ± 1.9	5.29
323.15 K, x1 = 0.321	972.37 ± 2	10
323.15 K, x1 = 0.424	978.56 ± 2	22.11
323.15 K, x1 = 0.557	983.92 ± 2	59.06
323.15 K, x1 = 0.739	990 ± 2.1	206.44
323.15 K, x1 = 0.858	992.57 ± 2.1	426.48
323.15 K, x1 = 1	994.82 ± 2.1	1198.7
328.15 K, x1 = 0.119	945.25 ± 1.9	1.67
328.15 K, x1 = 0.241	960.61 ± 1.9	4.75
328.15 K, x1 = 0.321	969.03 ± 2	8.72
328.15 K, x1 = 0.424	975.22 ± 2	18.67
328.15 K, x1 = 0.557	980.8 ± 2	47.65
328.15 K, x1 = 0.739	987.03 ± 2.1	156.59
328.15 K, x1 = 0.858	989.7 ± 2.1	312.38
328.15 K, x1 = 1	992 ± 2.1	828.3
333.15 K, x1 = 0.119	941.11 ± 1.9	1.56
333.15 K, x1 = 0.241	956.95 ± 1.9	4.25
333.15 K, x1 = 0.321	965.62 ± 2	7.67
333.15 K, x1 = 0.424	971.88 ± 2	15.92
333.15 K, x1 = 0.557	977.65 ± 2	38.97
333.15 K, x1 = 0.739	984.05 ± 2	120.9
333.15 K, x1 = 0.858	986.83 ± 2.1	233.56
333.15 K, x1 = 1	989.17 ± 2.1	588.69
338.15 K, x1 = 0.119	936.97 ± 1.9	1.45
338.15 K, x1 = 0.241	953.32 ± 1.9	3.85
338.15 K, x1 = 0.321	962.16 ± 1.9	6.79
338.15 K, x1 = 0.424	968.56 ± 2	13.71
338.15 K, x1 = 0.557	974.48 ± 2	32.38
338.15 K, x1 = 0.739	981.09 ± 2	94.93
338.15 K, x1 = 0.858	983.97 ± 2.1	176.82
338.15 K, x1 = 1	986.38 ± 2.1	426.28
343.15 K, x1 = 0.119	932.83 ± 1.9	1.36
343.15 K, x1 = 0.241	949.69 ± 1.9	3.5
343.15 K, x1 = 0.321	958.67 ± 1.9	6.06
343.15 K, x1 = 0.424	965.24 ± 2	11.91
343.15 K, x1 = 0.557	971.56 ± 2	27.13
343.15 K, x1 = 0.739	978.13 ± 2	75.65
343.15 K, x1 = 0.858	981.1 ± 2.1	137.16
343.15 K, x1 = 1	983.63 ± 2.1	316.66
348.15 K, x1 = 0.119	928.69 ± 1.9	1.27
348.15 K, x1 = 0.241	946.02 ± 1.9	3.2
348.15 K, x1 = 0.321	955.18 ± 1.9	5.43
348.15 K, x1 = 0.424	961.92 ± 2	10.41
348.15 K, x1 = 0.557	968.34 ± 2	22.93
348.15 K, x1 = 0.739	975.19 ± 2	61.29
348.15 K, x1 = 0.858	978.24 ± 2.1	108.17
348.15 K, x1 = 1	980.88 ± 2.1	237.14
353.15 K, x1 = 0.119	924.55 ± 1.9	1.2
353.15 K, x1 = 0.241	942.33 ± 1.9	2.93
353.15 K, x1 = 0.321	951.69 ± 1.9	4.9
353.15 K, x1 = 0.424	958.62 ± 2	9.16
353.15 K, x1 = 0.557	965.07 ± 2	19.6
353.15 K, x1 = 0.739	972.25 ± 2	50.08
353.15 K, x1 = 0.858	975.39 ± 2	86.03
353.15 K, x1 = 1	978.13 ± 2.1	181.41
